Test [1] deals with human adult dermal fibroblasts. Nature of the test: two-dimensional outmigration of fibroblasts from contracted collagen gels over protein coated surfaces. Type of test: cell-based. Conditions: for effect of synthetic peptide added to the outmigration assay on migration of fibroblasts onto dried FN: FN coated plates. On the procedure:
(§1) Primary cultures of human adult dermal fibroblasts, acquired from Marcia Simon (Living Skin Bank, SUNY at Stony Brook), the ATCC (Bethesda, Md.), or the NIA (Bethesda, Md.), are cultured in Dulbecco's modified Eagle's medium (DMEM, Life Technologies) containing 42 mM sodium bicarbonate and supplemented with 100 U/ml penicillin, 100 μg/ml streptomycin, and 10% fetal bovine serum (FBS, HyClone, Logan, Utah), at 37° C. and 5% CO2 /95% air in a humidified atmosphere. The cells are used between passages 4 and 12.
(§2) Fibroblast cultures at 80% confluence are harvested by treatment with 0.05% trypsin/0.01% EDTA. Trypsin is inactivated by addition of soy bean trypsin inhibitor in PBS containing 0.2% BSA. The cells are washed twice with DMEM+2% BSA and resuspended at a concentration of 1×10^6 cells/ml. The fibroblasts are mixed with neutralized collagen (Vitrogen 100, Celtrix Labs., Santa Clara, Calif.), 2% BSA, 30 ng/ml PDGF-BB, 30 μg/ml fibronectin, and concentrated DMEM so that the final concentration of DMEM and sodium bicarbonate is 1x. 600 μl of the cell mixture is added to the wells of a 24-well tissue culture plate, which has been precoated with 2% BSA. The collagen is allowed to polymerize at 37° C. The final concentration of collagen is 1.8 mg/ml and each gel contains 6×10^4 cells. After two hours incubation, the gels are gently detached from the plastic surface to allow contraction with the addition of 0.5 ml DMEM+2% BSA and 30 ng/ml PDGF-BB per well. The gels are incubated overnight at 37° C. in 100% humidity, 5% CO2 and 95% air.
(§3) Fibronectin, its fragments or recombinant domains were diluted with concentrated DMEM to the appropriate concentration. Aliquots of 450 μl protein solution are added to the wells of 24-well tissue culture plates (Becton-Dickinson, Lincoln Park, N.J.). After a 2 hour incubation at 37° C. in 5% CO2, plates were dried overnight at room temperature under sterile conditions.
Plates coated with dried proteins were washed once with PBS and incubated with 2% BSA for 1 hour at 37° C. to block nonspecific binding sites. After washing the plates three times with PBS, contracted-collagen gel organotypic constructs were attached to the coated plates. DMEM, 2% BSA and 30 ng/ml PDGF-BB was added to assay plates so that the medium was level with the top of the collagen gel.
For preparation of "gold standard" transmigration assays containing a dermal organotypic construct surrounded by a fibrin clot as previously described (Greiling and Clark 1997), dried fibrin fibril-coated dishes are washed once with PBS and fibroblast-contracted collagen gels are placed on the surface. Fibrinogen, at a final concentration of 300 μg/ml, is mixed with DMEM and 1.0 U/ml thrombin, added to the wells so that the solution is level with the top of the collagen gel, and allowed to clot at room temperature for 30 min. When needed, other supplements such as 30 ng/ml PDGF-BB are added to the mixture. […] All migration assays are quantified after a 24 hour incubation at 37° C. in 100% humidity, 5% CO2 and 95% air.
The number of migrated cells was quantified under a Nikon inverted phase microscope by visually counting identifiable cell nuclei located outside of the contracted collagen gel in the fibrin gel (transmigration assay) or on the matrix (outmigration assay). Within a given experiment each condition was run in triplicate and means ±SD calculated. […] Statistical differences among conditions can be determined by ANOVA.

The test system of another test is corneal epithelial wound. Particulars: cited from earlier work.
The subject of test [2] is human adult dermal fibroblasts. Nature of the test: three-dimensional transmigration from collagen gel into fibrin gel. Type of test: cell-based. As to the method:
as §1, §2
For preparation of "gold standard" transmigration assays containing a dermal organotypic construct surrounded by a fibrin clot as previously described (Greiling and Clark 1997), dried fibrin fibril-coated dishes are washed once with PBS and fibroblast-contracted collagen gels are placed on the surface. Fibrinogen, at a final concentration of 300 μg/ml, is mixed with DMEM and 1.0 U/ml thrombin, added to the wells so that the solution is level with the top of the collagen gel, and allowed to clot at room temperature for 30 min. When needed, other supplements such as 30 ng/ml PDGF-BB are added to the mixture. For HA 3-dimensional transmigration, wells are coated overnight at 37° C. with an appropriate solution of HA. The next day a fibroblast-contracted collagen gel is placed on the HA-coated well in DMEM, with or without 30 ng/ml PDGF-BB, is added so that the solution is level with the top of the collagen gels. All migration assays are quantified after a 24 hour incubation at 37° C. in 100% humidity, 5% CO2 and 95% air.
The number of migrated cells was quantified under a Nikon inverted phase microscope by visually counting identifiable cell nuclei located outside of the contracted collagen gel in the fibrin gel (transmigration assay) or on the matrix (outmigration assay). Within a given experiment each condition was run in triplicate and means ±SD calculated. All experiments were repeated at least three times. Statistical differences among conditions can be determined by ANOVA.
The extracellular matrix of the present invention was tested by use of the in vitro model as described in U.S. patent application Ser. No. 08/723,789, which is hereby incorporated by reference. The basis of the in vitro model is a contracted collagen gel containing fibroblasts which acquire a tissue-like phenotype within the collagen matrix. Surrounding the collagen gel, or dermal equivalent, with a fibrin clot produces a simple inside-outside model of the early cutaneous wound (FIG. 1). Without an added stimulus, no more than a few of the normal adult human dermal fibroblasts within the collagen gel would migrate into the fibrin gel. […]

Test [3] concerns human adult dermal fibroblasts. Nature of the test: fibroblast adhesion assay. The class given is cell-based. On the procedure:
as §1, §3
Assay plates are prepared as described under fibroblast migration assays. The assay for measuring fibroblast adhesion to matrix proteins are performed essentially as described (Gailit et al. 1993) except that the cell concentration is lowered to 100,000 cells/ml or 10,000 cells/well. […] The absorbance at 590 nm is measured with a dual wavelength microtiter plate reader (THERMOmax, Molecular Devices, Menlo Park, Calif.) and the reading corrected for light scattering by subtraction of the absorbance at 450 nm.

For “CS1: synthetic peptide from the IIICS segment of FN, SEQ ID NO:3 as tested”, the “effect of synthetic peptide added to the outmigration assay on migration of fibroblasts onto dried FN” value in test [1] is listed as “slightly enhancing effect in the higher concentrations”.

Consider chondroitin sulfate, for which, in the test on corneal epithelial wound, the “effect on wound closure” value is reported as “did not affect wound closure”.

With fibronectin [FN], in test [2] (30 μg/ml FN in each gel), the “transmigration on inclusion of FN in the collagen gel and in the fibrin gel” value is on record as “restored transmigration to a normal level”. In test [2] (FN added to fibrin gel), the “transmigration on addition of FN to the FN-depleted fibrin gel” value is listed as “restored”. Further, in test [2] (FN added to fibrin gel, FN:fibrinogen ratio 1:10), the “FN concentration giving optimal cell movement” value was 30 µg/mL. Moreover, the “most effective FN concentration in each gel” value in test [2] (FN in both collagen gel and fibrin gel, 10, 30, or 100 μg/ml tested) came out at 30 µg/mL. In test [2] (FN removed from fibrinogen by gelatin affinity chromatography, 30 ng/ml PDGF-BB), the “decrease of fibroblast transmigration into the fibrin clot after removal of FN” value is recorded as “about 80%”. Also, the “transmigration with FN-free collagen gels” value in test [2] (serum omitted, collagen gel contracted with PDGF-BB) is “no transmigration occurred”. For the same substance, the “effect of reduction and alkylation of FN dimer to the monomeric state on ability to mediate migration” value in test [1] is on record as “did not affect”. For the same substance, the “percent migration of that observed on FN, no additional protein added to plates” value in test [1] (plates coated with 120 nmol/l protein, mean ± SD, triplicate, FN normalized to 100%) came to 100 ± 2.7%. The “effect of reduction and alkylation of FN dimer to the monomeric state on ability to mediate adhesion” value in test [3] is “did not affect”.

As to “peptide I: synthetic peptide from the heparin II binding domain of FN, SEQ ID NO:6 (YEKPGSPRREVVPRPRGV)”, in test [1], the “effect of synthetic peptide added to the outmigration assay on migration of fibroblasts onto dried FN” value is recorded as “inhibited the migration of fibroblasts onto dried FN in a dose-dependent manner”. Also, the “effect of synthetic peptide on migration over collagen” value in test [1] (collagen coated assay plates) was “inhibitory effect in a dose-dependent manner”.

Values taken from US6194378A, “Fibronectin peptides-based extracellular matrix for wound healing” (The Research Foundation of State University of New York, priority 1998, dated 2001).
